Results taken from PubChem BioAssay AID248 (DTP/NCI, 2004).
Several values for one entry are separate records, joined by “and”; a condition that tells them apart may be missing. Identical values can stand only once. Toxic doses and inconclusive results are not listed. Cut-off read from the data, not from the text of the source: active = T/C of 150% or more; inactive = T/C below 125%.

Test system: L1210 leukemia ip in BDF1 mice, survival T/C
Assay: NCI In Vivo Anticancer Drug Screen. Data for tumor model L1210 Leukemia (intraperitoneal) in B6D2F1 (BDF1) mice
Conditions: endpoint: mean survival time, higher = longer survival
In short: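 In this screen, tumor-bearing mice given compound are compared to those given vehicle, and their survival values are reported as a treated-to-control quotient.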

[1] = dose: 100.0 mg/kg/injection, schedule: Q01DX009 (ip), vehicle: Klucel (hydroxypropylcellulose) (HPC)
[2] = dose: 100.0 mg/kg/injection, schedule: Q04DX003 (ip), vehicle: Klucel (hydroxypropylcellulose) (HPC)
[3] = dose: 200.0 mg/kg/injection, schedule: Q01DX009 (ip), vehicle: Klucel (hydroxypropylcellulose) (HPC)
[4] = dose: 200.0 mg/kg/injection, schedule: Q04DX003 (ip), vehicle: Klucel (hydroxypropylcellulose) (HPC)
[5] = dose: 400.0 mg/kg/injection, schedule: Q01DX009 (ip), vehicle: Klucel (hydroxypropylcellulose) (HPC)
[6] = dose: 400.0 mg/kg/injection, schedule: Q04DX003 (ip), vehicle: Klucel (hydroxypropylcellulose) (HPC)
[7] = dose: 100.0 mg/kg/injection, schedule: Q04DX003 (ip), vehicle: saline with Tween-80
[8] = dose: 200.0 mg/kg/injection, schedule: Q04DX003 (ip), vehicle: saline with Tween-80
[9] = dose: 400.0 mg/kg/injection, schedule: Q04DX003 (ip), vehicle: saline with Tween-80
[10] = dose: 25.0 mg/kg/injection, schedule: Q04DX003 (ip), vehicle: saline with Tween-80
[11] = dose: 50.0 mg/kg/injection, schedule: Q04DX003 (ip), vehicle: saline with Tween-80
[12] = dose: 50.0 mg/kg/injection, schedule: Q01DX009 (ip), vehicle: saline
[13] = dose: 100.0 mg/kg/injection, schedule: Q01DX009 (ip), vehicle: saline
[14] = dose: 100.0 mg/kg/injection, schedule: Q01DX001 (ip), vehicle: carboxymethylcellulose (CMC)
[15] = dose: 200.0 mg/kg/injection, schedule: Q01DX001 (ip), vehicle: carboxymethylcellulose (CMC)
[16] = dose: 400.0 mg/kg/injection, schedule: Q01DX001 (ip), vehicle: carboxymethylcellulose (CMC)

Measured: T/C

COc1ccc2c(O)coc2c1
inactive: [1] 100 % of control | [2] 104 % of control | [3] 101 % of control | [4] 102 % of control | [5] 96 % of control | [6] 93 % of control

Cc1ccc(CN(CC(=O)O)N=O)cc1
inactive: dose: 100.0 mg/kg/injection, schedule: Q01DX Z (ip), vehicle: saline 107 % of control | dose: 200.0 mg/kg/injection, schedule: Q01DX Z (ip), vehicle: saline 100 % of control

CCCCCCCCCCOC(=O)c1ccccn1
inactive: dose: 100.0 mg/kg/injection, schedule: Q01DX001 (ip), vehicle: saline 93 % of control | dose: 200.0 mg/kg/injection, schedule: Q01DX001 (ip), vehicle: saline 87 % of control

COc1c(OC)c2c3c(c(-c4c(C)cc5c(C(C)C)c(OC)c(OC)c6c5c4OC6OC)c(C)cc3c1C(C)C)OC2OC (stereo not drawn)
inactive: [1] 102 % of control | [3] 102 % of control | [5] 107 % of control

S=C([S][Sn]([c]1ccccc1)([c]1ccccc1)[c]1ccccc1)N1CCOCC1
inactive: [2] 100 % of control | [4] 96 % of control | [6] 94 % of control

CC1(C)CC(=O)CC(C)(C)N1O
inactive: [1] 94 % of control | [2] 101 % of control | [3] 98 % of control | [4] 94 % of control | [5] 100 % of control | [6] 94 % of control

N#Cc1c(Cl)nsc1Cl
inactive: [1] 97 % of control | [3] 102 % of control

Cc1ccc(S(=O)(=O)Nc2ccc(C(=O)O)c(Cl)c2)cc1
inactive: [7] 108 % of control | [8] 92 % of control | [9] 104 % of control

CC(=O)[O][Pb]([CH2]C(C)C)([CH2]C(C)C)[CH2]C(C)C
inactive: dose: 1.5 mg/kg/injection, schedule: Q01DX009 (ip), vehicle: Klucel (hydroxypropylcellulose) (HPC) 97 % of control | dose: 3.0 mg/kg/injection, schedule: Q01DX001 (ip), vehicle: Klucel (hydroxypropylcellulose) (HPC) 91 % of control | dose: 3.0 mg/kg/injection, schedule: Q01DX009 (ip), vehicle: Klucel (hydroxypropylcellulose) (HPC) 95 % of control | dose: 6.0 mg/kg/injection, schedule: Q01DX001 (ip), vehicle: Klucel (hydroxypropylcellulose) (HPC) 96 % of control | dose: 6.0 mg/kg/injection, schedule: Q01DX009 (ip), vehicle: Klucel (hydroxypropylcellulose) (HPC) 95 % of control | dose: 6.25 mg/kg/injection, schedule: Q01DX009 (ip), vehicle: Klucel (hydroxypropylcellulose) (HPC) 96 % of control | dose: 12.0 mg/kg/injection, schedule: Q01DX001 (ip), vehicle: Klucel (hydroxypropylcellulose) (HPC) 92 % of control | dose: 12.5 mg/kg/injection, schedule: Q04DX002 (ip), vehicle: Klucel (hydroxypropylcellulose) (HPC) 96 % of control

CCOC(=O)CCCN(C(=O)OCc1ccccc1)N(C)C(=O)OCc1ccccc1
inactive: [10] 104 % of control | [11] 111 % of control | [7] 106 % of control | [8] 104 % of control | [9] 101 % of control

CCCCOC(=O)c1ccccc1C(=O)OC1CCCCC1
inactive: dose: 75.0 mg/kg/injection, schedule: Q01DX001 (ip), vehicle: Klucel (hydroxypropylcellulose) (HPC) 115 % of control | dose: 150.0 mg/kg/injection, schedule: Q01DX001 (ip), vehicle: Klucel (hydroxypropylcellulose) (HPC) 103 % of control | dose: 300.0 mg/kg/injection, schedule: Q01DX001 (ip), vehicle: Klucel (hydroxypropylcellulose) (HPC) 100 % of control

CCCCN(CCCC)N=Nc1c[nH]c(=O)[nH]c1=O
inactive: dose: 8.0 mg/kg/injection, schedule: Q01DX Z (ip), vehicle: carboxymethylcellulose (CMC) 114 % of control | dose: 16.0 mg/kg/injection, schedule: Q01DX Z (ip), vehicle: carboxymethylcellulose (CMC) 109 % of control

C/C=C/C=N/NC(=O)c1ccc[n+](C)c1
inactive: [12] 112 % of control | [13] 104 % of control | dose: 200.0 mg/kg/injection, schedule: Q01DX009 (ip), vehicle: saline 112 % of control

N/C(=N\Cl)C(Cl)(Cl)Cl
inactive: dose: 12.5 mg/kg/injection, schedule: Q04DX003 (ip), vehicle: saline with Tween-80 103 % of control | [10] 103 % of control | [11] 103 % of control

NC(=S)N/N=C\c1[nH]c(=O)nc2ccccc12
inactive: [1] 98 % of control | [2] 103 % of control | [3] 92 % of control | [4] 100 % of control | [5] 95 % of control | [6] 97 % of control

CC(C)CC[NH-].CC(C)CC[NH-].[Cl][Pt+2][Cl]
inactive: dose: 50.0 mg/kg/injection, schedule: Q04DX003 (ip), vehicle: saline 100 % of control and 105 % of control | dose: 100.0 mg/kg/injection, schedule: Q04DX003 (ip), vehicle: saline 92 % of control and 105 % of control | dose: 200.0 mg/kg/injection, schedule: Q04DX003 (ip), vehicle: saline 103 % of control and 117 % of control | dose: 400.0 mg/kg/injection, schedule: Q04DX003 (ip), vehicle: saline 97 % of control and 88 % of control

COC(=O)CC12CCCC(C)(CC(=O)N1)C2 (stereo not drawn)
inactive: [14] 93 % of control | [15] 96 % of control | [16] 98 % of control

CCOC(=O)C(=O)C(C#N)C(=O)OCC (stereo not drawn)
inactive: dose: 12.5 mg/kg/injection, schedule: Q04DX003 (ip), vehicle: Klucel (hydroxypropylcellulose) (HPC) 100 % of control | dose: 25.0 mg/kg/injection, schedule: Q01DX009 (ip), vehicle: saline 98 % of control | dose: 25.0 mg/kg/injection, schedule: Q04DX003 (ip), vehicle: Klucel (hydroxypropylcellulose) (HPC) 100 % of control | [12] 98 % of control | dose: 50.0 mg/kg/injection, schedule: Q04DX003 (ip), vehicle: Klucel (hydroxypropylcellulose) (HPC) 91 % of control | [13] 95 % of control | [2] 97 % of control

Cc1csc2ncnc(Cl)c12
inactive: dose: 25.0 mg/kg/injection, schedule: Q04DX002 (ip), vehicle: saline with Tween-80 98 % of control | dose: 50.0 mg/kg/injection, schedule: Q04DX002 (ip), vehicle: saline with Tween-80 91 % of control | dose: 100.0 mg/kg/injection, schedule: Q04DX002 (ip), vehicle: saline with Tween-80 94 % of control

N#C/C(N)=C(\C#N)N=Cc1ccc(-c2ccccc2)cc1
inactive: dose: 100.0 mg/kg/injection, schedule: Q01DX001 (ip), vehicle: saline with Tween-80 97 % of control | dose: 200.0 mg/kg/injection, schedule: Q01DX001 (ip), vehicle: saline with Tween-80 92 % of control | dose: 400.0 mg/kg/injection, schedule: Q01DX001 (ip), vehicle: saline with Tween-80 93 % of control

CC(=O)Nc1c(Br)cc2c(c1Br)Cc1cc(Br)ccc1-2
inactive: [14] 111 % of control | [15] 97 % of control | [16] 108 % of control

CC(=O)OC1C(C=O)OC(C)(C)OC1C1COC(=O)O1 (stereo not drawn)
inactive: dose: 25.0 mg/kg/injection, schedule: Q04DX002 (ip), vehicle: Klucel (hydroxypropylcellulose) (HPC) 104 % of control | dose: 50.0 mg/kg/injection, schedule: Q04DX002 (ip), vehicle: Klucel (hydroxypropylcellulose) (HPC) 93 % of control | dose: 100.0 mg/kg/injection, schedule: Q04DX002 (ip), vehicle: Klucel (hydroxypropylcellulose) (HPC) 100 % of control

c1ccc(SSc2ccccc2)cc1
inactive: dose: 25.0 mg/kg/injection, schedule: Q01DX009 (ip), vehicle: saline with Tween-80 89 % of control | [10] 95 % of control | dose: 50.0 mg/kg/injection, schedule: Q01DX009 (ip), vehicle: saline with Tween-80 86 % of control | [11] 103 % of control | [7] 97 % of control
